Source: patent publication US11111222B2, “Hydroxyeicosatrienoic acid compounds and their use as therapeutic agents” (THE REGENTS OF THE UNIVERSITY OF MICHIGAN, priority 2016, dated 2021)
Entries after “also recorded” stand apart in the source; their conditions may differ.

Assays:
Rap1 = Rap1 activation in washed platelets (Rap1-GTP pull-down, Western blot); assay type: cell-based, mouse; details: 25 μM 12-HETrE, PAR4-AP stimulated, vs vehicle
Method: Following 1 minute of stimulation platelets were lysed with 2× platelet lysis buffer (100 mM Tris HCl, pH 7.4, 150 mM NaCl, 2% IGEPAL, 1% sodium deoxycholate, and 0.05% SDS) containing protease and phosphatase inhibitors. The cytoskeleton was pelleted by centrifugation at 14000×g for 7 minutes at 4° C. Active Rap1 was selectively captured from the supernatant by incubating GST-tagged Rap1 binding domain of RalGDS conjugated to glutathione sepharose beads for one hour on a nutator at 4° C. The beads were then washed 5 times with IP buffer and resuspended in 2× Laemmeli reducing buffer (62.5 mM Tris-HCl, pH 6.8, 2% SDS, 25% glycerol, 0.01% bromophenol blue, 5% β-mercaptoethanol). The samples were boiled for 10 minutes and then loaded onto a 10% SDS-polyacrylamide gel electrophoresis (PAGE) gel. Western blots were performed using a Rap1 antibody and quantified with a LI-COR imager.

Tail bleeding assay = assay type: in vivo, mouse; details: mice retro-orbitally injected; 5 mm tail tip excised; vs control
Method: Mice were anesthetized with ketamine/xyzaline and placed on a heating pad in prone position, the tip of the tail (5 mm) was excised with a sterile scalpel, and the tails were immediately immersed into isotonic saline solution (0.9%) warmed to 37° C. Bleeding time was assessed until cessation of blood flow from the tail for 1 minute.

[1] = Cremaster muscle arterial puncture model of hemostasis; assay type: in vivo, mouse; details: laser puncture of cremaster arteriole; vs control treated mice
Method: Mice were anesthetized, tail vein injected with anti-platelet and anti-fibrin antibodies and their cremaster muscle arterioles were prepared as described above. A high intensity laser pulse from the laser ablation system was used to puncture a hole in the cremaster muscle arteriole wall as visualized by red blood cell (RBC) leakage from the vessel. Images of RBCs leakage and hemostatic plug formation were acquired in real-time with a fluorescent microscope as described above. Arterial bleeding time was defined as the time from laser pulse injury until cessation of RBC leakage from the vessel.

adenylyl cyclase = assay: LC/MS quantification of cAMP in washed human platelets; assay type: cell-based; details: 25 μM, 1 min; platelets pre-treated with 10 μM IBMX; vs DMSO
Method: Washed human platelets were treated with the specific ligand or vehicle control for 1 min at room temperature, and quenched with an equal volume of ice-cold 2× platelet lysis buffer containing protease and phosphatase inhibitors. Lysed platelet samples were centrifuged at 14,000 g for 7 min at 4° C. to pellet cytoskeleton and the supernatant was stored in −80° C.
To prepare the sample for LC/MS injection, 200 μL of the supernatant was spiked with 400 pg of adenosine-3′,5′-cyclic-13C5 monophosphate (^13C5-cAMP) (Toronto Research Chemicals, Inc.), an internal standard, and 600 μL of LC/MS grade acetonitrile (Fisher Scientific). The sample was briefly vortexed and centrifuged at 14,000 rpm for 10 min at 4° C. The supernatants were then air dried in a SpeedVac and reconstituted in 200 μL of LC/MS grade water and centrifuged at 10,000 rpm for 5 min at 4° C. and used for LC/MS injection.
The separation and detection of cAMP was performed on a Waters ACQUITY UPLC system equipped with a Xevo Triple Quadrupole Mass Spectrometer (TQ-S MS/MS). […]
The mass spectrometer was operated with an ESI source in positive mode. […] Cyclic AMP (cAMP) was quantitated using ^13C5-cAMP as the internal standard. […]

washed human platelets = assay: Human platelet aggregation after pre-treatment with adenylyl cyclase inhibitor SQ 22536; assay type: cell-based; details: platelets pre-treated with SQ 22536 (25 μM, 20 min); 12-HETrE 7.5 to 25 μM, 1 min; EC80 PAR4-AP
Method: Blood from healthy donors was collected into vacutainers containing buffered sodium citrate, and platelets were isolated by serial centrifugation as described above for mouse platelets. The platelets were resuspended in Tyrode's buffer at 3×10^8 platelets/mL, unless otherwise specified.
A lumi-aggregometer (Chrono-log model 700D) was used to measure platelet aggregation under stirring conditions (1100 rpm) at 37° C. […]

VASP (serine 157) = assay: VASP phosphorylation in human platelets; assay type: cell-based; details: 25 μM, 1 min; vs DMSO
Method: Washed platelets were treated with PUFA or PUFA metabolite (12(S)-HETrE or compound IIc) for one minute, then directly lysed in 5× Laemmeli sample buffer (1.5 M Tris-HCl, pH 6.8, glycerol, 5% β-mercaptoethanol, 10% sodium dodecyl sulfate (SDS), and 1% bromophenol blue). The samples were boiled for five minutes and then run on a 10% SDS-PAGE gel. The levels of total and phospho-VASP (serine 157) were quantified by Western Blot using an Odyssey imaging system (LI-CoR).

[2] = test system: platelets of mice expressing the human FcγRIIa receptor; assay: Animal model of ITP (anti-GPIX in mice expressing human FcγRIIa); assay type: in vivo, mouse; details: 6 mg/kg i.v. 10 min before GPIX antibody
Method: Mice expressing the human immune-receptor FcγRIIa were injected IV with GPIX, an antibody known to induce acute ITP (Stolla et al., Blood 118(4): 1113-1120, 2011) as previously described (Yeung et al., Blood 124(4): 2271-2279, 2014). […] To determine if 12(S)-HETrE compounds would be viable therapeutics to prevent ITP in this model, 6 mg/kg 12(S)-HETrE was injected IV 10 minutes prior to GPIX antibody injection, and platelet count was measured at several time points prior to and following antibody injection. Additionally, immunofluorescent-labelled platelets that had been injected prior to the onset of ITP were measured in excised lungs 4 hours following GPIX administration.

CCCCC/C=C\C[C@H](O)/C=C/C=C\CCCCCCC(=O)O [12(S)-HETrE, 12(S)-hydroxy-8Z,10E,14Z-eicosatrienoic acid]
Rap1 activation (Rap1-GTP) (Rap1; 12-LOX−/− mouse platelets): suppressed Rap1 activation | Rap1 activation (Rap1-GTP) (Rap1; WT mouse platelets): suppressed Rap1 activation | tail bleeding time (Tail bleeding assay): no significant difference in tail bleeding time | duration of RBC leakage (arterial bleeding time) [1]: No significant difference in the duration of RBC leakage | level of intracellular cAMP (adenylyl cyclase): significant increase in the level of intracellular cAMP | PAR4-AP-mediated platelet aggregation (washed human platelets): unable to inhibit PAR4-AP-mediated platelet aggregation | VASP phosphorylation (S157) (VASP (serine 157)): enhanced VASP phosphorylation | reduction of thrombi in the lungs ([2]; excised lungs): more than 40% | accumulation of fluorescently labeled platelets in the lungs ([2]; lungs excised 4 hours after GPIX, vs vehicle): prevented accumulation of fluorescently labeled platelets in the lungs | platelet count (thrombocytopenia) ([2]; vs vehicle): no signs of thrombocytopenia; also recorded: prevented thrombocytopenia
